Molecules are shown by their SMILES.

With `COc1cn(-c2cccc(-c3cnn(C)c3)c2F)nc(-c2ccnn2-c2ccccc2)c1=O`, the melting point (in general, the temperature of the solid-liquid transition) lay within 218 to 221 °C.

`Cc1cn(-c2ccc(N3C[C@H](CO)OC3=O)cc2F)cn1` registered a melting point of 151 to 153 °C.

In turn, `CCCCCCCCCCCCCCCCOc1ccc(C(=O)O)o1` showed a melting point of 118 to 119 °C.

In turn, `CC1(C)CCS(=O)(=O)N1` yielded a melting point of 72 °C.

For `COC(=O)CCc1cc(C(=O)c2cccc(C(=O)OC)n2)ccc1OC`, the melting point fell in the range of 97 to 98 °C.

In the case of `CN(C)CCCOc1ccc(-c2nnc(CSCCOc3ccccc3)s2)cc1`, the melting point was 72 to 73 °C.

The compound `N#CCC(=O)c1cc(F)c(F)c(F)c1F` registered a melting point of 55 to 57 °C.

With `CCOC(=O)/C=C(C)/C=C/C(Br)=C(/C)c1ccc2c(c1)C(C)(C)CCC2(C)C`, the melting point lay within 97 to 98.5 °C.

With `CCOC(=O)[C@@H]1CN(CC2=Cc3ccc(OC)cc32)CC[C@H]1O` (relative stereo), the melting point was in the range of 156 to 160 °C.

As to `CCCNC(=S)NS(=O)(=O)c1cc2c(cc1OC)OCC(NC(=O)c1cc(F)ccc1OC)C2` (centres undefined), the melting point lay within 172 to 173 °C.

For the compound `FC(F)(F)c1cccc(Nc2ccccc2-c2n[nH]c(=S)[nH]2)c1`, the melting point is 275 to 279 °C.

The compound `Cc1cc(OC(=O)c2ccccc2)c2ccccc2c1O` came in with a melting point of 172 to 174 °C.

In turn, `COCCOc1cnn(-c2nc3ccccc3c(=O)[nH]2)c1` returned a melting point of 119 to 124 °C.

In turn, `CC(C)Nc1cccnc1N1CCN(C(=O)c2ccc(C(=O)NCCCO)cn2)CC1` had a melting point of 139 to 140 °C.

In the case of `Nc1nccnc1OCc1cccnc1`, the melting point is 120 to 122 °C.

Take `CC(C)NC(=Nc1ccc(Cl)cc1)Nc1ncccc1OCc1c(F)cccc1F`: the melting point was 112 to 113 °C.

For `O=C(CCC=C(c1ccccc1)c1ccccc1)NCCCCn1ccnc1`, the melting point lay within 102 to 103 °C.

`O=C(NC(Cc1ccccc1)C(=O)O)c1cc2cc(F)ccc2[nH]1` (centres undefined) registered a melting point of 125 to 127 °C.

Turning to `Nc1ccc(NC2CCCCCCC2)c([N+](=O)[O-])c1`, the melting point was determined as 161 °C.

On to `CCSc1nc(=O)n(C(=O)NC)s1`, for which the melting point is 131 °C.

Take `CSc1nnc(SCC(=O)C23CC4CC(CC(C4)C2)C3)s1`: the melting point is 134 to 135 °C.

In the case of `CC(C)(C)OC(=O)N1CCC[C@@H]1C=C(Br)Br`, the melting point was in the range of 55 to 60 °C.

In turn, `CC(=O)Nc1ccc2c(c1)CC2OC#N` (centres undefined) gave a melting point of 163 to 168 °C.

For `OC(CNC1CCc2ccccc2C1)COc1cccc2[nH]ccc12` (centres undefined), the melting point lay within 65 to 68 °C.

`CCN(CCCCN)c1ccc2c(=O)[nH][nH]c(=O)c2c1`: the melting point was in the range of 255 to 257 °C.

Compound `CC12CCC3C(CCC4CC(=O)CCC43C)C1CC=C2c1cccnc1` (centres undefined) had a melting point of 190 to 192 °C.

For `Cc1noc(NS(=O)(=O)c2ccccc2-c2ccc(-c3ncco3)cc2CC#N)c1C`, the melting point lay within 103 to 110 °C.

In the case of `CCOC(=O)c1ccc2c(c(C)nn2C)c1C#N`, the melting point lay within 170 to 176 °C.

Regarding `N#Cc1cn(Nc2c(Cl)cc(Cl)cc2Cl)c(=O)[nH]c1=O`, the melting point is greater than 320 °C.

`CC(C)(C)c1ccc(C=CC(=O)c2ccc(N3CCN(c4ccncc4)CC3)cc2)cc1` had a melting point of 213 to 214 °C.

On to `CCOC(=O)C(=O)Nc1cc(C(F)(F)F)c(S(=O)(=O)NC(=O)C(=O)OCC)cc1[N+](=O)[O-]`, for which the melting point lay in the range of 175 to 180 °C.

In the case of `O=C1CCC(c2ccc(Cl)c(C(F)(F)F)c2)=NN1`, the melting point was in the range of 195 to 198 °C.

The compound `CCOC(=O)Nc1nc2ccccc2c2c1nc(CC)n2CCCCNS(C)(=O)=O` gave a melting point of 185 to 187 °C.

Take `Cc1cc(Oc2ncc(C(F)(F)F)cc2Cl)nn1C(=O)NCC(C)C`: the melting point was in the range of 45 to 47 °C.

On to `CCCCCCCCCCCCCCCc1ccc(C(=O)O)c(O)c1`, for which the melting point was in the range of 96 to 97 °C.

Take `CCNc1ccc(NS(=O)(=O)c2ccc(C)cc2)c(C)c1`: the melting point lay in the range of 162 to 163 °C.

Regarding `CC(C)NC(=O)n1nc(N(C)C)n(C)c1=O`, the melting point was in the range of 36 to 38 °C.

The compound `CCN(CC)CCc1cccc(Nc2ncc3c(n2)N(c2cccc(C#N)c2)C(=O)N(c2ccc(OC)cc2)C3C)c1` (centres undefined) had a melting point of 128 to 145 °C.

On to `CCn1ncnc1COc1nc2c(cnn2-c2ccccc2)cc1C(C)(C)C`, for which the melting point lay in the range of 150 to 152 °C.

With `COCc1ccsc1-c1nsc2ccc(-n3c(=O)cc(C(F)(F)F)n(C)c3=O)cc12`, the melting point lay within 131 to 133 °C.

The compound `Cc1ccc(C(=O)Nc2ccc(N3CCCCC3)c(C(F)(F)F)c2)cc1Nc1nccc(-c2cccnc2)n1` came in with a melting point of 201 to 202 °C.

In the case of `COC(=O)C1CN(C(=O)[C@H](CO)NC(=O)OCc2ccccc2)C1`, the melting point lay within 90 to 95 °C.

Consider `CCCCc1ccc(N)c(C(=O)C(=O)OC(=O)C(=O)c2cc(CCCC)ccc2N)c1`, for which the melting point was in the range of 218 to 220 °C.

The compound `Cc1oc(-c2ccccc2)nc1COc1ccc(COc2cncc(CC#N)c2)cc1` had a melting point of 137 to 138 °C.

As for `COc1ccc(C(=O)C2=C(O)C(=O)N(C3OCCO3)C2c2ccccc2)cc1` (centres undefined), the melting point lay in the range of 216 to 219 °C.

`CC(C)OC(=O)COCc1cc(-c2nn(C)c(C(F)(F)F)c2Cl)c(F)cc1Cl` registered a melting point of 55 °C.

In turn, `COc1cccc(NC(=O)NCc2nnc(C)n2-c2sc(C(=O)O)cc2C(=O)c2ccccc2Cl)c1` displayed a melting point of 206 to 208 °C.

`NC(=O)c1cccc(-c2noc(-c3ccccc3F)n2)c1` displayed a melting point of 231 to 234 °C.

`Cc1nc2ccccn2c(=O)c1CCN1CCN(C(=NNc2ccccc2)c2ccccc2F)CC1` had a melting point of 180 °C.

In the case of `CCSc1ccc(-c2coc3ccc(-c4nnc(C)o4)cc23)cc1F`, the melting point was 115 to 116 °C.

In turn, `ClCc1nn(-c2ccccc2)c2c1CCCC2` came in with a melting point of 100 °C.

As for `O=c1ccc2c(-c3ccco3)nccc2[nH]1`, the melting point was greater than 300 °C.

In turn, `CCCCC(=O)c1ccc(OCC(=O)O)c(Cl)c1Cl` had a melting point of 110 to 113 °C.

Compound `Oc1ccc2cc(I)ccc2c1` registered a melting point of 136 to 138 °C.

Compound `CCOC(=O)c1cc2c(=O)c3cc(C(C)(C)O)ccc3oc2nc1N` returned a melting point of 263 to 264 °C.

Compound `O=[N+]([O-])c1ccc(OC2(c3ccccc3)CCN(Cc3ccccc3)CC2)cc1` came in with a melting point of 135 to 137 °C.

Take `CC(=O)Oc1ccc(C(=O)Nc2cccc(OCc3cccnc3)c2)cc1C(C)(C)C`: the melting point fell in the range of 58 to 62 °C.

In the case of `CCCC(=O)Nc1c(C)c(C)c2c(c1C)C(c1ccc(C(C)C)cc1)C(C)(C)O2` (centres undefined), the melting point is 120 to 122 °C.

For `CC(=O)NCC(C)(C)c1ccc(C(=O)Nc2cn3cc(-n4ccnc4)ccc3n2)cc1`, the melting point fell in the range of 242 to 244 °C.

Take `CC(C)C(C(=O)O)c1ccc2ccccc2c1` (centres undefined): the melting point was 129 to 130 °C.

The compound `COc1ccc2c(c1)nc(COc1ccc(CC3SC(=O)NC3=O)cc1)n2C` (centres undefined) registered a melting point of 209 to 210 °C.

For `CC(C)N(C(=S)NC(=O)c1ccccc1)c1ccc2c(c1)OCO2`, the melting point fell in the range of 152 to 154 °C.

Consider `COc1ccc(S(=O)(=O)Nc2nc(-c3cccc([N+](=O)[O-])c3)c(CN3CCOCC3)s2)cc1OC`, for which the melting point worked out at 143 °C.

On to `COc1ccc(C(=O)Nc2ccccc2)cc1NC(=NC#N)Nc1cc(Cl)cc(Cl)c1`, for which the melting point is 225 to 227 °C.

Regarding `Cn1cccc1C1=CC(=O)c2ncccc2C1=O`, the melting point was 167 to 168 °C.

Regarding `O=C1C(=Cc2ccc([N+](=O)[O-])cc2)CCc2cc(OCCn3ccnc3)ccc21`, the melting point was in the range of 184 to 185 °C.

Turning to `COc1ccc(-c2ccc(C#N)cc2)cc1-c1nc2cc(C#N)ccc2[nH]1`, the melting point lay within 289 to 290 °C.

`O=C(CN1CCC(Cc2ccccc2)CC1)Nc1ccc2[nH]c(=S)oc2c1` registered a melting point of 183 to 184 °C.

In turn, `Cc1cc2c(s1)C(C(=O)O)CC2` (centres undefined) returned a melting point of 105 to 107 °C.

For `O=C1Nc2c(Cl)cc(Cl)c3cccc1c23`, the melting point was 265 °C.

`CCCCCCCCCCCCCCOc1ccc(C(=O)OC)cc1C(C)(C)C` yielded a melting point of 44 to 45 °C.

`COc1ccc2cc(-c3ccc(-c4ccccc4)[nH]3)ccc2c1`: the melting point is 208 to 210 °C.

With `CNc1c(F)cc2c(=O)c(C(=O)O)cn(-c3cc(N)c(F)cc3Cl)c2c1Cl`, the melting point came to 273 °C.

Turning to `O=C1NC(=O)C(=Cc2ccc3c(c2)CCC(Cc2ccccc2)O3)S1` (single isomer, unassigned; (-)), the melting point turned out to be 255 °C.

For `COc1ccc(C2CNC(=O)C2)cc1OCC(O)CN1CCN(c2ccccc2)CC1` (centres undefined), the melting point lay in the range of 143 to 144 °C.

For `O=[N+]([O-])c1cc(Cl)c(O)cc1OCCO`, the melting point came out at 159 °C.

Compound `CN(C)c1ccc2c(c1)C(=O)N(c1ccc(CCCC(=O)OC(C)(C)C)cc1)C2` gave a melting point of 115 to 116 °C.

In turn, `CCC12CCC3C4CCC(=O)C=C4CCC3C1CCC2OC1CCCCO1` (centres undefined) showed a melting point of 148 to 152 °C.

Turning to `COc1nc2ccccc2cc1NC(=O)N1CCN(c2ccccc2Cl)CC1`, the melting point is 79 to 80 °C.

As for `CCOC(=O)COc1ccc2cc(S(N)(=O)=O)sc2c1`, the melting point lay in the range of 182 to 184 °C.

In turn, `CCOC(=O)COc1cc(-c2ccccc2)nc2ccccc12` showed a melting point of 96 °C.

As for `N#Cc1cc(N=Nc2cccc(Cl)c2)ccc1N`, the melting point worked out at 255 °C.

For `COc1cc(OC)nc(NC(=O)NS(=O)(=O)c2ccccc2-c2ccccn2)n1`, the melting point is 175 to 176 °C.

Regarding `COc1ccc(C=CC(=O)O)cc1C=O`, the melting point was in the range of 223 to 225 °C.

In turn, `CC1(C)CC(NC(=O)NC23CC4CC(CC(C4)C2)C3)CC(C)(C)C1=O` showed a melting point of 234 to 238 °C.

The compound `CC(=O)Nc1ccc(S(N)(=O)=O)cc1[N+](=O)[O-]` returned a melting point of 182 to 183 °C.

In turn, `Cc1csc(C)c1CO` showed a melting point of 80 to 81 °C.

In the case of `COC(=O)C=CCC1C(=O)N2C(C(=O)OCC(Cl)(Cl)Cl)=CCC12` (centres undefined), the melting point was in the range of 101 to 102 °C.

In turn, `c1ccc(CC2CCc3ccccc3N2)cc1` (centres undefined) showed a melting point of 187 to 190 °C.

Source of the values: a melting point compilation (Tetko et al.; mined from patent text by program, amines drawn as free bases though some values may be those of a salt).
